Earlier results as cited in patent US20150118313A1, “ENHANCED FOLIC ACID FLUORESCENT MATERIAL, MULTIFLUORESCENT POROUS COMPOSITIONS OF MATTER AND POTENTIAL APPLICATIONS THEREOF” (Nanologica AB, priority 2010, published 2015).
“Also recorded” adds a separate entry of the source.

What was measured:
[1] = weak acid, neutralized in the range of pH 5-7
[2] = aqueous solvent; solubility is dependent on pH

| pKa [1] | SMILES | solubility in aqueous solution [2] |
| --- | --- | --- |
| 6.6 | O=C(O)c1ccc(-c2c3nc(c(-c4ccc(C(=O)O)cc4)c4ccc([nH]4)c(-c4ccc(C(=O)O)cc4)c4nc(c(-c5ccc(C(=O)O)cc5)c5ccc2[nH]5)C=C4)C=C3)cc1 [TCPP, Meso-tetrakis (4-carboxyphenyl) porphyrin] | scarcely soluble; also recorded: poor solubility |
| – | Nc1nc2ncc(CNc3ccc(C(=O)N[C@@H](CCC(=O)O)C(=O)O)cc3)nc2c(=O)[nH]1 [folic acid] | poor solubility |
